Measured values published in patent US5886178A, “3-aroylbenzylpyridazinone derivatives” (Syntex (U.S.A.) Inc., priority 1997, dated 1999).

Columns and labels:
[1] = test system: prostaglandin E2 synthesis; experiment: Inhibition of eicosanoid (PGE2) synthesis in vivo, carrageenan air-pouch model in rats; design: species or system rat; settings: 10 mg/Kg, oral, male rats
Experimental: In this assay, an air-pouch is created in the rat and the PGE2 levels in the air-pouch exudate are measured by enzyme immunoassay. Briefly, male rats were anesthetized using a 60:40 CO2 :O2 mixture and subsequently injected subcutaneously with 20 ml of sterilized air, under aseptic conditions, in the proximal area of the dorsum. This injection of sterile air causes the creation of a subcutaneous "air pouch". The next day, a further 10 ml of sterile air was injected into the previously formed pouch using the same technique. […] Control rats received vehicle alone. After 30 minutes, 5 ml of a 0.5% solution of carrageenan (Sigma, Lambda Type IV) was injected into the air pouch. The rats were euthanized 3 hr after the compound administration. […] The total exudate volume was recorded, and the samples were analyzed for PGE2 and 6-keto PGF1 by ELISA (Titerzyme®, PerSeptive Diagnostics) and TxB2 by radioimmuno assay (New England Nuclear Research, Catalog No. NEK-037), according to the manufacturer's directions.
The mean concentrations of PGE2 were calculated for each group. The anti-inflammatory activity of test materials is expressed as the percent inhibition of PGE2 formation in the test group relative to the control group.

[2] = target: T1, COX I (Homo sapiens, UniProt P23219); experiment: Inhibition of COX I in a cell based assay (human promonocytic THP cells, TXB2 ELISA); design: endogenous in cells; host or cells: human promonocytic THP cells, PMA-treated
Experimental: The COX I and COX II inhibitory activity of compounds of this invention in a cell based assay was determined as described below.
The inhibitory activity of the test compounds against cell associated COX-1 was measured using human promonocytic THP cells. Cells were plated in 96-well microtiter plates at a density of 8×10^4 cells/well in RPMI-1640 medium (Gibco). COX-1 activity was initiated by incubating the cells with 0.1μM phorbol 12-myristate 13-acetate (PMA, Sigma) in dimethyl sulfoxide (DMSO, Aldrich) at 37° C. After 40-48 hours, the medium was removed, and the cells were washed twice with phosphate buffered saline (PBS, Gibco). 225 μl/well of fresh medium containing desired concentrations of the test compounds in DMSO, or the carrier vehicles (control wells), was added and the cells incubated at 37° C. for 30 minutes; after which 5 μM calcium ionophore A23187 (Sigma) was added and the incubation was continued for an additional 10 minutes. The reaction was terminated by transferring the plates to ice. The culture supernatants were transferred and appropriately diluted and the amount of thromboxane B2 (TXB2) present in each supernatant was quantitated using an ELISA kit (Cayman Chemicals).
The COX I and COX II inhibitory activities in the cell based assay (expressed as IC50) of some compounds of the invention were: […]

[3] = Acetic Acid-induced Rat Writhing Assay (analgesic activity); type: in vivo; settings: 10 mg/Kg, oral, male Sprague Dawley rats
From the text: The analgesic activity of compounds of this invention may be determined by the Acetic Acid-induced Rat Writhing Assay, using a modification of the method described in Berkenkopf, J. W. and Weichman, B. M. "Production of Prostacyclin in Mice following Intraperitoneal Injection of Acetic Acid, Phenylbenzoquinone and Zymosan: Its Role in the Writhing Response". Prostaglandins: 36: 693-70 (1988). This assay is one of several acute assays which have been used to assess the analgesic activity of NSAIDs, and is considered predictive of human efficacy. The test materials were administered orally to male Sprague Dawley rats in a volume of 1 ml/100 g body weight as solutions or suspensions in an aqueous vehicle containing 0.9% NaCl, 0.5% sodium carboxymethyl-cellulose, 0.4% polysorbate 80, 0.9% benzyl alcohol and 97.3% water. Control rats received vehicle alone. One hour after compound administration, 0.3 ml/100 g body weight of 0.75% solution of acetic acid was injected intraperitoneally. The acetic acid injection induces a series of characteristic writhing responses, which were counted over the period between 15 and 30 minutes after the injection. The analgesic activity of test materials is expressed as the percentage inhibition of writhing in the test group relative to the control group.

[4] = target: T1, COX I; experiment: Inhibition of COX I in vitro, partially purified enzyme, radiometric assay; type: biochemical; design: made in house; settings: 20 micromolar arachidonic acid
Experimental: The COX I and COX II inhibitory activity of compounds of this invention in vitro was determined using partially purified COX I and COX II enzymes, prepared as described in J. Barnett et al, Biochim. Biophys.
COX I and COX II samples were diluted with Tris-HCl buffer (50 mM Tris-HCl, pH 7.9) containing 2 mM EDTA and 10% glycerol and reconstituted by incubating first with 2 mM phenol for 5 minutes and then with 1 micromolar hematin for an additional 5 minutes. 125 μl of the reconstituted COX I or COX II enzyme were preincubated for 10 minutes at room temperature in a shaking water bath with the compounds of the invention dissolved in 2-15 μl of DMSO or the carrier vehicles (control samples). The enzyme reaction was initiated by adding 25 μl of 1-[14C]arachidonic acid (80,000-100,000 cpm/tube; 20 micromolar final concentration) and the reaction was allowed to continue for an additional 45 seconds. The reaction was terminated by adding 100 μl of 2N HCl and 750 μl water. An aliquot (950 μl) of the reaction mixture was loaded onto a 1 ml C18 Sep-Pak column (J. T. Baker, Phillipsburg, N.J.) which had been previously washed with 2-3 ml methanol and equilibrated with 5-6 ml distilled water. Oxygenated products were quantitatively eluted with 3 ml of acetonitrile/water/acetic acid (50:50:0.1, v/v) and the radioactivity in the eluate determined in a scintillation counter.

T1 sequence (P23219 24-599): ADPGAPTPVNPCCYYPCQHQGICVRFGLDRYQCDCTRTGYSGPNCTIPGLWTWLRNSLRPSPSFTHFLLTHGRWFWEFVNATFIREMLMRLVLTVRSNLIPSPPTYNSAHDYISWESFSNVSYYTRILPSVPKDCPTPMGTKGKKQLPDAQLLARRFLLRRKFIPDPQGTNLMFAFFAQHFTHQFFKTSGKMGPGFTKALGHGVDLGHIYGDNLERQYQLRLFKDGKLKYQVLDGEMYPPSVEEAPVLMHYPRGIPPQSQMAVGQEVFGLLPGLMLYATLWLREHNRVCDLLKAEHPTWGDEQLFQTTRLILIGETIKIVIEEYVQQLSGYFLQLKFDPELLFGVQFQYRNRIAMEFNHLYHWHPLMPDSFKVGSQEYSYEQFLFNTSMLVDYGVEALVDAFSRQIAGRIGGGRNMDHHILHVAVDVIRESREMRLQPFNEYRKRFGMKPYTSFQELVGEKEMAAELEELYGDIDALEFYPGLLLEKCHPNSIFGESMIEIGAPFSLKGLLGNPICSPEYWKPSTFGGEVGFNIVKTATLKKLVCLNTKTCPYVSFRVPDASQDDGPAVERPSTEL

COc1ccc(C(=O)c2cccc(Cc3ccc(=O)[nH]n3)c2C)cc1 [Cpd 11, 6-[3-(4-methoxybenzoyl)-2-methylbenzyl]-2H-pyridazin-3-one]
% inhibition of air pouch PGE2 formation [1]: 80% | IC50 [2]: 4.8 µM | % inhibition of writhing responses [3]: 10% | IC50 [4]: 391 µM
